Data reported in patent US8642642B2, “Heterocyclic arylsulphones suitable for treating disorders that respond to modulation of the serotonin 5HT6 receptor” (Abbott Laboratories, priority 2006, dated 2014).

Legend:
human 5-HT6 receptor = biological target: T1, human 5-HT6 receptor (Homo sapiens, UniProt P50406); assay: Human 5-HT6 receptor binding assay (3H-LSD displacement); conditions: membranes from HEK-293 cells, 2 nM 3H-LSD
T1 construct: expressed in transfected cells
Procedure: (§1) The substance to be tested was either dissolved in methanol/Chremophor® (BASF-AG) or in dimethyl sulfoxide and then diluted with water to the desired concentration.
The compounds were dissolved in a concentration of 10^−2 M or 10^−3 M in DMSO. Further dilutions were performed in incubation buffer.
The procedure for the binding assay was based on the method of Monsma et al. (1993) Mol Pharmacol 43: 320-327. The binding reaction was carried out in a total volume of 0.250 ml for 60 min at 37° C. Membranes from HEK-293 cells stably expressing the human 5-HT6 receptor were incubated with 2 nM ^3H-LSD in the presence or absence of various concentrations of test compound for 60 min at 37° C. Non-specific binding was defined with 100 μM Serotonin (5-HT). Assays were performed in duplicate. Bound and free radioligand was separated by filtration and bound radioactivity determined by liquid scintillation counting.
The specific ligand binding to the receptors was defined as the difference between the total binding and the nonspecific binding determined in the presence of an excess of unlabelled 5-HT. The results are expressed as a percent of control specific binding obtained in the presence of compound. The IC50 values (concentration causing a half-maximal inhibition of control specific binding) and Hill coefficients (nH) were determined by non-linear regression analysis of the competition curves using Hill equation curve fitting.
The inhibition constants (Ki) were calculated from the Cheng Prusoff equation (Ki=IC50/(1+(L/KD)), where L=concentration of radioligand in the assay, and KD=affinity of the radioligand for the receptor).

[1] = biological target: T2, human dopamine D3 receptors (Homo sapiens, UniProt P35462); assay: Dopamine D3 receptor binding ([125I]-iodosulpride); conditions: for Ki: membranes from HEK-293 cells, 0.1 nM [125I]-iodosulpride; for Ki(D2)/Ki(D3): ratio of receptor binding constants, D2L versus D3
T2 construct: expressed in transfected cells
T2 sequence (P35462 whole entry): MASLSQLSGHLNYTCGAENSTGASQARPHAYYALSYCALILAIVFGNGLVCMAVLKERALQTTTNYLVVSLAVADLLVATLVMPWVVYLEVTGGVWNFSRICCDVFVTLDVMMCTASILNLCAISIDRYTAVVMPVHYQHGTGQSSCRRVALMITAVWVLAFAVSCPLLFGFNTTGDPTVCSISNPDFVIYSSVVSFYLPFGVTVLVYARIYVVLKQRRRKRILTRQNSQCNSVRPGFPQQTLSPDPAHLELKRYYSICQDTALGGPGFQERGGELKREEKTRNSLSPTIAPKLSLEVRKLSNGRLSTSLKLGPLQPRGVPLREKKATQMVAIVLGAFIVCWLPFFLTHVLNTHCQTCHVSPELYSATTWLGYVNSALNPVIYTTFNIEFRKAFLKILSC
Procedure: as §1
Each assay mixture was run in triplicate.
The incubation buffer contained 50 mM tris, 120 mM NaCl, 5 mM KCl, 2 mM CaCl2, 2 mM MgCl2 and 0.1% bovine serum albumin, 10 μM quinolone and 0.1% ascorbic acid (prepared fresh daily). The buffer was adjusted to pH 7.4 with HCl.
After having been incubated at 25° C. for 60 minutes, the assay mixtures were filtered through a Whatman GF/B glass fiber filter under vacuum using a cell collecting device. The filters were transferred to scintillation viols using a filter transfer system. After 4 ml of Ultima Gold® (Packard) have been added, the samples were shaken for one hour and the radioactivity was then counted in a Beta-Counter (Packard, Tricarb 2000 or 2200CA). The cpm values were converted into dpm using a standard quench series and the program belonging to the instrument.
The inhibition curves were analyzed by means of iterative nonlinear regression analysis using the Statistical Analysis System (SAS) which is similar to the “LIGAND” program described by Munson and Rodbard.

T1 sequence (P50406 whole entry): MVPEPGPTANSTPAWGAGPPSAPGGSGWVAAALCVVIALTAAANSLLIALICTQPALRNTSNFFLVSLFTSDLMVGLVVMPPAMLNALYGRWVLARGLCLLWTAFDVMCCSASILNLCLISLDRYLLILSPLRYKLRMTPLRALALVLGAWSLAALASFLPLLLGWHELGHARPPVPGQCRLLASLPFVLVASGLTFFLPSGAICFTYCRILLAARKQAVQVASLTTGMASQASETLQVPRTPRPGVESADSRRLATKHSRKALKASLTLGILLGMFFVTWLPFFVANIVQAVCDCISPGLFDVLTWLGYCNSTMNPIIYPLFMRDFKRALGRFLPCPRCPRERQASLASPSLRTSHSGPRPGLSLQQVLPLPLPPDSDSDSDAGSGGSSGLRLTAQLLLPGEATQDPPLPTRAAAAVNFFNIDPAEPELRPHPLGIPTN

| Ki (human 5-HT6 receptor) [nM] | Ki [1] [nM] | Ki(D2)/Ki(D3) [1] | SMILES |
| --- | --- | --- | --- |
| 10 to 50 | 10 to 50 | + (between 10 and 50) | CCCN1CC[C@@H](c2ccc(NS(=O)(=O)c3ccc(-c4csnn4)s3)cc2)C1.Cl [Example 75, 5-[1,2,3]Thiadiazol-4-yl-thiophene-2-sulfonic acid [4-((S)-1-propyl-pyrrolidin-3-yl)-phenyl]-amide hydrochloride] |
| 1 to 10 | 1 to 10 | +++ (between 100 and 150) | CCCN1CC[C@@H](c2ccc(NS(=O)(=O)c3ccc(C(F)(F)F)s3)cc2)C1.Cl [Example 76, 5-Trifluoromethyl-thiophene-2-sulfonic acid [4-((S)-1-propyl-pyrrolidin-3-yl)-phenyl]-amide hydrochloride] |
| 1 to 10 | < 1 | – | CCCN1CC[C@@H](c2ccc(NS(=O)(=O)c3ccc(-c4csc(C)n4)s3)cc2)C1 [Example 78, 5-(2-Methyl-thiazol-4-yl)-thiophene-2-sulfonic acid [4-((S)-1-propyl-pyrrolidin-3-yl)-phenyl]-amide] |
| 10 to 50 | 1 to 10 | ++ (between 50 and 100) | CCCN1CC[C@@H](c2ccc(NS(=O)(=O)c3ccc(F)c(Br)c3F)cc2)C1.Cl [Example 86, 3-Bromo-2,4-difluoro-N-[4-((S)-1-propyl-pyrrolidin-3-yl)-phenyl]-benzenesulfonamide hydrochloride] |
| 1 to 10 | 1 to 10 | ++++ (>150) | CCCN1CC[C@@H](c2ccc(NS(=O)(=O)c3ccc(C)s3)cc2)C1.Cl [Example 90, 5-Methyl-thiophene-2-sulfonic acid [4-((S)-1-propyl-pyrrolidin-3-yl)-phenyl]-amide hydrochloride] |
| 1 to 10 | 10 to 50 | ++ (between 50 and 100) | CCCN1CC[C@@H](c2ccc(NS(=O)(=O)c3cccc(F)c3)cc2)C1.O=C(O)C(F)(F)F [Example 97, 3-Fluoro-N-[4-((S)-1-propyl-pyrrolidin-3-yl)-phenyl]-benzenesulfonamide trifluoroacetate] |
| 1 to 10 | 10 to 50 | + (between 10 and 50) | CCCN1CC[C@@H](c2ccc(NS(=O)(=O)c3cccc(Cl)c3)cc2)C1 [Example 98, 3-Chloro-N-[4-((S)-1-propyl-pyrrolidin-3-yl)-phenyl]-benzenesulfonamide] |
| 1 to 10 | 50 to 150 | + (between 10 and 50) | CCCN1CC[C@@H](c2ccc(NS(=O)(=O)c3cccc(-c4csc(C)n4)c3)cc2)C1 [Example 99, 3-(2-Methyl-thiazol-4-yl)-N-[4-((S)-1-propyl-pyrrolidin-3-yl)-phenyl]-benzenesulfonamide] |
| 1 to 10 | 10 to 50 | +++ (between 100 and 150) | C=CCN1CC[C@@H](c2ccc(NS(=O)(=O)c3cccc(C(F)(F)F)c3)cc2)C1 [Example 100, N-[4-((S)-1-Allyl-pyrrolidin-3-yl)-phenyl]-3-trifluoromethyl-benzenesulfonamide] |
| 10 to 50 | 10 to 50 | ++ (between 50 and 100) | CCCN1CC[C@@H](c2ccc(NS(=O)(=O)c3ccc(F)c(C(F)(F)F)c3)cc2)C1 [Example 102, 4-Fluoro-N-[4-((S)-1-propyl-pyrrolidin-3-yl)-phenyl]-3-trifluoromethyl-benzenesulfonamide] |
| 10 to 50 | 50 to 150 | ++ (between 50 and 100) | CCCN1CC[C@@H](c2ccc(NS(=O)(=O)c3cc(F)cc(C(F)(F)F)c3)cc2)C1.Cl [Example 103, 3-Fluoro-N-[4-((S)-1-propyl-pyrrolidin-3-yl)-phenyl]-5-trifluoromethyl-benzenesulfonamide hydrochloride] |
